Experimental data published in patent publication US20240067693A1, “POLYPEPTIDES AND USES THEREOF” (MEDIMMUNE LIMITED, priority 2020, published 2024).
Numbered stars: 1 amine (or outer) side, 2 acyl side, 3 side chain; on linkers, the order of the positions; unused ones are H or OH. Bridge positions count the residues as written; N and C are the ends. Square brackets hold non-standard residues; d marks the D form. Side chains are listed from the residue outwards. Peptide text beside a SMILES is read from it. * marks the point of attachment. C18 diacid = O=C(O)CCCCCCCCCCCCCCCCC(=O)*; γGlu = O=C(O)[C@H](CCC(=O)[*:2])N[*:1]; Aib = CC(C)(N)C(=O)O

Tests used:
[1] = target: T1, human calcitonin receptor (hCTR) (Homo sapiens, UniProt P30988); test: cAMP production in 1321N1 cells with stable recombinant expression of human calcitonin receptor (hCTR); type: cell-based; details: cAMP, 1321N1 cells, assay buffer with 0.1% BSA; read-out: EC50 (pM) hCTR
T1 construct: expressed in transfected cells
T1 sequence (P30988 25-474): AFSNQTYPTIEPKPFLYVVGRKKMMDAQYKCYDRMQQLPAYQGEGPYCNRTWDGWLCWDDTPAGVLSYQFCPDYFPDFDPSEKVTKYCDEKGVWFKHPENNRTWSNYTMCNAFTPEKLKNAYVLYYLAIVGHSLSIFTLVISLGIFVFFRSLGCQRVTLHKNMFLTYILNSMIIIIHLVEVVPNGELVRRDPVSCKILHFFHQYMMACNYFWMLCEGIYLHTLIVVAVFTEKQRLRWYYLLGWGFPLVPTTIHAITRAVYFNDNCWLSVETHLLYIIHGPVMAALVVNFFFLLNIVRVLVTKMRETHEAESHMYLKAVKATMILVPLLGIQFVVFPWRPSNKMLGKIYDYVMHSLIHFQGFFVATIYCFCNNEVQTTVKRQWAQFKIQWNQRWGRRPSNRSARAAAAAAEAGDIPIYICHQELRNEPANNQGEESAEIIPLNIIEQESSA
Procedure, shortened: (§1)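 Thawed cells in HBSS/0.1% BSA/25 mM HEPES pH 7.4 with 0.5 mM IBMX were incubated with peptides 30 min at room temperature; cAMP read by HTRF. EC50 from 4-parameter fit of % activation relative to maximal amylin or calcitonin effect.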

[2] = target: T2, rat amylin receptor (calcitonin receptor co-expressed with receptor activity modifying protein, RAMP3) (Rat AMYR3) (Rattus norvegicus, UniProt P32214+Q9JJ73); test: cAMP production in HEK cells with stable recombinant expression of rat amylin receptor (Rat AMYR3); type: cell-based; details: assay buffer with 0.1% BSA
T2 construct: expressed in transfected cells
T2 sequence (P32214 25-516): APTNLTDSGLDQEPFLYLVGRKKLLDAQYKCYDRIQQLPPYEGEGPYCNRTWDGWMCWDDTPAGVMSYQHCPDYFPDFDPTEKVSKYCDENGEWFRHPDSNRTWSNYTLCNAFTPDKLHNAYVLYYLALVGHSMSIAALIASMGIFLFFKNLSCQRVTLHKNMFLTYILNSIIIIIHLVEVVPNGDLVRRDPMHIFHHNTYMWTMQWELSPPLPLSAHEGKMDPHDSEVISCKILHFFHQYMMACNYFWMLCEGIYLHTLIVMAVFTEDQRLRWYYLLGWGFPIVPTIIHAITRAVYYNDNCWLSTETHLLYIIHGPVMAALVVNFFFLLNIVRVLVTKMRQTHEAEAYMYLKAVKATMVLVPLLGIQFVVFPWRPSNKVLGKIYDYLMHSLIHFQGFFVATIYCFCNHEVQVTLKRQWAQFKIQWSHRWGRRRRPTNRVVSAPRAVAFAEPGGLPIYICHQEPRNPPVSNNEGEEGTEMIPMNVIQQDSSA
T2 sequence (Q9JJ73 23-147 partner): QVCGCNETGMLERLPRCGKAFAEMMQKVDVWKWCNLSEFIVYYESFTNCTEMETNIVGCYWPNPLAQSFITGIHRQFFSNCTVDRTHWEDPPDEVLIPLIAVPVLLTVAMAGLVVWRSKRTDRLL
Experimental: (§2) The functional activities of lipidated pramlintide analogue peptides, such as cAMP production, were tested in 1321N1 cell line with stable recombinant expression of human calcitonin receptor (hCTR) or human amylin receptor (calcitonin receptor co-expressed with receptor activity modifying protein, RAMP3) (hAMYR3) or HEK cells with stable recombinant expression of rat calcitonin receptor (rat CTR) or rat amylin receptor (calcitonin receptor co-expressed with receptor activity modifying protein, RAMP3) (Rat AMYR3).
(§3) Cryopreserved cell stock was thawed rapidly in a water-bath, suspended in assay buffer (0.1% BSA (Sigma # A3059) in HBSS (Sigma # H8264) with 25 mM HEPES, pH 7.4 and containing 0.5 mM IB MX (Sigma# 17018)) and spun at 240×g for 5 minutes. Cells were re-suspended in assay buffer at a batch-dependent optimized concentration (e.g. hCTR cells at 0.125×10^5 cells/mL, hAMYR3 cells at 0.125×10^5 cells/mL, rat CTR cells at 1x10^5 cells/mL, rat AMYR3 at 2×10^5 cells/mL).
(§4) The test peptide stock was prepared in DMSO and diluted in assay buffer to reach stated concentrations and transferred in duplicates into a 384-black shallow well microtitre assay plate (Corning # 3676). Cells were added to the assay plate, incubated at room temperature for 30 minutes and the cAMP level measured using cAMP dynamic 2 HTRF kit (Cisbio, Cat # 62AM4PEJ), following the two step protocol as per manufacturer's recommendations. The plates were read on an Envision (Perkin Elmer) using excitation wavelength of 320 nm and emission wavelengths of 620nm & 665 nm.
(§5) Data was transformed to % Delta F as described in the manufacturer's guidelines and analyzed as percent activation of maximal amylin or calcitonin effect by 4-parameter logistic fit to determine EC50 values. The selectivity of a peptide to hAMYR vs hCTR is defined as a ratio of EC50 values at the two receptors.

[3] = Pharmacokinetic determination via IV and SC administration in Sprague Dawley rats; details: male, rat, plasma, 20 nmol/kg
Experimental: (§6) PK studies were performed to determine the half-life (T1/2) of test peptides. T1/2 describes the time taken for the maximum plasma concentration (Cmax) of a test substance to halve its steady-state concentration when in circulation.
(§7) Male SD rats were purchased from Si Bei Fu Laboratory Animal Technology Co. Ltd (China). The animals were 6-8 weeks old with body weights of 200-300 g on the dosing date. The animals were housed in a 12-hour light/12-hour dark cycle environment and were fasted overnight before dosing. The body weight of the animals were recorded before dosing, 24 h and 48 h post dosing . Animals had free access to food and drinks, and the food consumption was quantified every day.
(§8) Test articles were administered at 20 nmol/kg. Blood samples were collected from each animal via Jugular vein.
(§9) The blood samples were transferred into eppendorf low binding tube containing K2 EDTA. Above 0.150 mL blood were collected at each time point. Blood samples were centrifuged at 4,000 g for 5 minutes at 4° C. to obtain plasma. The plasma samples were stored frozen at −75±15° C. until analysis.
(§10) Concentrations of the test articles in the plasma samples were analyzed using a LC-MS/MS method. Data acquisition was performed by LabSolution version 5.89 software (Shimadzu, Kyoto, Japan). Data statistics were performed using Excel 97-2003 software. The pharmacokinetic parameters of test articles were calculated using a non-compartmental approach with Phoenix™ VVinNonlin® 6.1.
(§11) The following pharmacokinetic parameters were calculated, whenever possible from the plasma concentration versus time data: • IV administration: T1/2, C0, AUClast, AUCinf, MRTinf, Cl, Vss, Number of Points for Regression. • SC administration: Tmax, Cmax, AUClast, AUCinf, MRTinf, F, Number of Points for Regression.

lean rats = test: Rat acute food intake study; type: in vivo; details: lean male Sprague Dawley rats, 20 nmol/kg subcutaneously
Experimental: Male Sprague Dawley rats were obtained from Taconic Denmark, ApS at approximately 7 weeks of age. Rats were implanted with a microchip for identification, housed 4/cage with enrichment, free access to food and water, and allowed one week acclimatisation while non-invasive characterization was performed. Rats were on a 12:12 light:dark cycle that switches at 1pm:1am. Food intake was monitored via the HM2 system (Lafayette Instrument) that allows for monitoring in a home cage. As each rat enters an access tunnel to feed, an IR beam is broken, and the implanted microchip is read. Resulting changes to food weight is then assigned to the specific animal. Social order has shown no impact to overall feeding patterns and amounts.
Rats were sorted into groups based on Day -1 body weight and 24-hour accumulated food intake (n=7 per group). On Day 0 rats were weighed, then fasted for 6 hours. Thirty (30) minutes prior to the reintroduction of food, rats were dosed subcutaneously (5 mL/kg) with 20 nmol/kg of test compound or 60 nmol/kg peptide 1 (pramlintide) diluted in an appropriate vehicle, after which food was returned, and lights went out. Automated food intake was monitored for the following 3 days, and rats were weighed once per day.
Food intake per rat was batched into 1-hour intervals and integrated into Gubra's GubraView data management system. Discrete food intake data was exported into MS Excel from which cumulative food intake data was generated. Cumulative food intake data was then transposed into GraphPad Prism (v8.0.1) for analysis of dark period feeding

[4] = target: T3, rat calcitonin receptor (rat CTR) (Rattus norvegicus, UniProt P32214); test: cAMP production in HEK cells with stable recombinant expression of rat calcitonin receptor (rat CTR); type: cell-based; details: assay buffer with 0.1% BSA
T3 construct: expressed in transfected cells
T3 sequence (P32214 25-516): T2 sequence (P32214 25-516)
Experimental: as §2, §3, §4, §5

[5] = target: T4, human amylin receptor (calcitonin receptor co-expressed with receptor activity modifying protein, RAMP3) (hAMYR3) (Homo sapiens, UniProt O60896+P30988); test: cAMP production in 1321N1 cells with stable recombinant expression of human amylin receptor (hAMYR3); type: cell-based; details: for Ratio (selectivity hAMYR vs hCTR, ratio of EC50 values at the two receptors): EC50 hCTR / EC50 hAMYR3; for EC50: cAMP, 1321N1 cells, assay buffer with 0.1% BSA, read-out: EC50 (pM) hAMYR3
T4 construct: expressed in transfected cells
T4 sequence (P30988 25-474): T1 sequence (P30988 25-474)
T4 sequence (O60896 24-148 partner): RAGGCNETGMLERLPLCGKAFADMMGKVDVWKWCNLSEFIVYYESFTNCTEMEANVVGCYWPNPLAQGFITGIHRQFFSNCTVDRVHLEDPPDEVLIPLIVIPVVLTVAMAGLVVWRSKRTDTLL
Procedure, shortened: as §1

in vivo = details: male, Sprague-Dawley, rat, 20 nmol/kg
Experimental: as §6, §7, §8, §9, §10, §11

EC50 [1]	EC50 [2]	half-life ([3]; iv)	half-life ([3]; sc)	EC50 [4]	Ratio (selectivity hAMYR vs hCTR, ratio of EC50 values at the two receptors) [5]	EC50 [5]	half-life (in vivo; iv)	half-life (in vivo; sc)	SMILES	Cummulative food intake (% vehicle treated intake) At 12 h (lean rats)	Cummulative food intake (% vehicle treated intake) At 24 h (lean rats)	Cummulative food intake (% vehicle treated intake) At 48 h (lean rats)
1050 pM	5.1 pM	6.6 h	9 h	20.3 pM	6	190 pM			CC[C@H](C)[C@H](NC(=O)[C@@H]1CCCN1C(=O)CNC(=O)[C@H](Cc1ccccc1)NC(=O)[C@H](CC(N)=O)NC(=O)C(C)(C)NC(=O)[C@H](CO)NC(=O)[C@H](CO)NC(=O)[C@H](Cc1c[nH]cn1)NC(=O)[C@@H](NC(=O)[C@H](CC(C)C)NC(=O)[C@H](Cc1ccccc1)NC(=O)[C@H](CCC(=O)O)NC(=O)[C@H](C)NC(=O)[C@H](CC(C)C)NC(=O)[C@H](CCCNC(=N)N)NC(=O)[C@H](CCC(N)=O)NC(=O)[C@@H](NC(=O)[C@H](C)NC(=O)[C@@H]1CSSC[C@H](NC(=O)[C@H](CCCCN)NC(=O)[C@@H](N)CCCCNC(=O)CC[C@H](NC(=O)CCCCCCCCCCCCCCCCC(=O)O)C(=O)O)C(=O)N[C@@H](CC(N)=O)C(=O)N[C@@H]([C@@H](C)O)C(=O)N[C@@H](C)C(=O)N[C@@H]([C@@H](C)O)C(=O)N1)[C@@H](C)O)C(C)C)C(=O)N[C@@H](CC(C)C)C(=O)N1CCC[C@H]1C(=O)N1CCC[C@H]1C(=O)N[C@H](C(=O)N[C@@H](CC(N)=O)C(=O)N[C@H](C(=O)NCC(=O)N[C@@H](CO)C(=O)N[C@@H](CC(N)=O)C(=O)N[C@H](C(=O)N[C@@H](Cc1ccc(O)cc1)C(N)=O)[C@@H](C)O)C(C)C)[C@@H](C)O [Peptide 38, K(γE-C18diacid)K[CNTATC]ATQRLAEFLVHSS(Aib)NFGPILPPTNVGSNTY-amide] (H-K([γGlu-C18 diacid])KCNTATCATQRLAEFLVHSS[Aib]NFGPILPPTNVGSNTY-NH2; disulfide 3-8; N-terminus assumed)	6.9 % vehicle treated intake	5.5 % vehicle treated intake	13.7 % vehicle treated intake
1180 pM	8.2 pM			925 pM	7	178 pM	8.3 h	10.1 h	CC[C@H](C)[C@H](NC(=O)[C@@H]1CCCN1C(=O)CNC(=O)[C@H](Cc1ccccc1)NC(=O)[C@H](CC(N)=O)NC(=O)C(C)(C)NC(=O)[C@H](CO)NC(=O)[C@H](CO)NC(=O)[C@H](Cc1c[nH]cn1)NC(=O)[C@@H](NC(=O)[C@H](CC(C)C)NC(=O)[C@H](Cc1ccccc1)NC(=O)[C@H](CC(N)=O)NC(=O)[C@H](C)NC(=O)[C@H](CC(C)C)NC(=O)[C@H](CCCNC(=N)N)NC(=O)[C@H](CCC(N)=O)NC(=O)[C@@H](NC(=O)[C@H](C)NC(=O)[C@@H]1CSSC[C@H](NC(=O)[C@H](CCCCN)NC(=O)[C@@H](N)CCCCNC(=O)CC[C@H](NC(=O)CCCCCCCCCCCCCCCCC(=O)O)C(=O)O)C(=O)N[C@@H](CC(N)=O)C(=O)N[C@@H]([C@@H](C)O)C(=O)N[C@@H](C)C(=O)N[C@@H]([C@@H](C)O)C(=O)N1)[C@@H](C)O)C(C)C)C(=O)N[C@@H](CC(C)C)C(=O)N1CCC[C@H]1C(=O)N1CCC[C@H]1C(=O)N[C@H](C(=O)N[C@@H](CCC(=O)O)C(=O)N[C@H](C(=O)NCC(=O)N[C@@H](CO)C(=O)N[C@@H](CC(N)=O)C(=O)N[C@H](C(=O)N[C@@H](Cc1ccc(O)cc1)C(N)=O)[C@@H](C)O)C(C)C)[C@@H](C)O [Peptide 41, K(γE-C18diacid)K[CNTATC]ATQRLANFLVHSS(Aib)NFGPILPPTEVGSNTY-amide] (H-K([γGlu-C18 diacid])KCNTATCATQRLANFLVHSS[Aib]NFGPILPPTEVGSNTY-NH2; disulfide 3-8; N-terminus assumed)	44.6 % vehicle treated intake	38.5 % vehicle treated intake	58.8 % vehicle treated intake
